The assay addresses T1, human RXFP1 (Homo sapiens, UniProt Q9HBX9).
T1 construct: expressed in transfected cells
T1 sequence (Q9HBX9 1-757): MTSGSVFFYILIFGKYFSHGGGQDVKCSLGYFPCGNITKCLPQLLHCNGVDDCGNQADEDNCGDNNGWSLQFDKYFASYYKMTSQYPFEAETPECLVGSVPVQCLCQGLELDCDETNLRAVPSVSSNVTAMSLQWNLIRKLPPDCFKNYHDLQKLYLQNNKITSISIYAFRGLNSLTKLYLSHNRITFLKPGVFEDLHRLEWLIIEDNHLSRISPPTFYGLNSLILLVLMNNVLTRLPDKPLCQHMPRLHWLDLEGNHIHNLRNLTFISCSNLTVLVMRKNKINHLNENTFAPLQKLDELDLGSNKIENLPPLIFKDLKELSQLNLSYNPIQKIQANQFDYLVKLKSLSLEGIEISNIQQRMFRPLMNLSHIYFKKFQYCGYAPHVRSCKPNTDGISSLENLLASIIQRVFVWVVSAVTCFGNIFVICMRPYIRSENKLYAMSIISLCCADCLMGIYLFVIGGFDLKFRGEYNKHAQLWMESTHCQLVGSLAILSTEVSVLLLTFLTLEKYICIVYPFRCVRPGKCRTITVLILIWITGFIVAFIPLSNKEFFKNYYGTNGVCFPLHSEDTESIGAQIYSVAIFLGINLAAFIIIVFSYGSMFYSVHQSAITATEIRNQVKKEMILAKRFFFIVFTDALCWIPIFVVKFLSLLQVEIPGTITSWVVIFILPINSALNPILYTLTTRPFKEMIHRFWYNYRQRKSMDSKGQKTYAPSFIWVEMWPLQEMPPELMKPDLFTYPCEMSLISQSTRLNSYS
Description: hRXFP1 HEK293 cAMP assay (HTRF). It is filed as cell-based. Conditions: HEK293 cells stably expressing human RXFP1; 30 min at rt; intracellular cAMP by HTRF. Summed up: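 HEK293 cells stably expressing human RXFP1 treated 30 min at rt with compound (0.010 nM to 50 μM, 2% DMSO) in HBSS/HEPES buffer with 0.5 mM IBMX. Intracellular cAMP measured by HTRF (665/590 nm ratio) against a cAMP standard curve; potency fitted by 4-parameter logistic.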

In the case of `COc1ccc(C2=NOC3(CCN(C(=O)CO)CC3)C2)cc1C(=O)Nc1c(C(=O)Nc2ccc(F)c(C(F)(F)F)c2)sc2cc(C(F)(F)F)ccc12` [Example 271, N-(4-fluoro-3-(trifluoromethyl)phenyl)-3-(5-(8-(2-hydroxyacetyl)-1-oxa-2,8-diazaspiro[4.5]dec-2-en-3-yl)-2-methoxy-benzamido)-6-(trifluoromethyl) benzo[b] thiophene-2-carboxamide], the midpoint of the response, the EC50, lay at 379 nM.
Take `COc1ccc(C(=O)N2CC3(C2)CS(=O)(=O)C3)cc1C(=O)Nc1c(C(=O)Nc2ccc(F)c(C(F)(F)F)c2)sc2cc(C(F)(F)F)ccc12` [Example 130, 3-(5-(2,2-dioxido-2-thia-6-azaspiro[3.3]heptane-6-carbonyl)-2-methoxy-benzamido)-N-(4-fluoro-3-(trifluoromethyl)phenyl)-6-(trifluoromethyl) benzo[b] thiophene-2-carboxamide]: the 50% effective concentration (EC50) (commonly the concentration that produces a half-maximal response) was 279 nM.
The value for `COc1ccc(C(=O)N2CC(S(C)(=O)=O)C2)cc1C(=O)Nc1c(C(=O)Nc2ccc(F)c(C(F)(F)F)c2)sc2cc(C(F)(F)F)ccc12` [Example 178, N-(4-fluoro-3-(trifluoromethyl)phenyl)-3-(2-methoxy-5-(3-(methylsulfonyl)azetidine-1-carbonyl)benzamido)-6-(trifluoromethyl) benzo[b] thiophene-2-carboxamide] was 5.2 nM; that for `COc1ccc(C2CCN(C(=O)C(C)(C)O)C2)cc1C(=O)Nc1c(C(=O)Nc2ccc(F)c(C(F)(F)F)c2)sc2cc(C(F)(F)F)ccc12` (stereo not shown) [Example 151, N-(4-fluoro-3-(trifluoromethyl)phenyl)-3-(5-(1-(2-hydroxy-2-methylpropanoyl)pyrrolidin-3-yl)-2-methoxy-benzamido)-6-(trifluoromethyl) benzo[b] thiophene-2-carboxamide] was 208 nM; that for `COc1ccc(C2=NOC3CC(NC(=O)C(C)(C)O)CC23)cc1C(=O)Nc1c(C(=O)Nc2ccc(F)c(C(F)(F)F)c2)sc2cc(C(F)(F)F)ccc12` (single isomer, unassigned) [Example 265, N-[4-fluoro-3-(trifluoromethyl)phenyl]-3-{5-[5-(2-hydroxy-2-methyl-propanamido)-3aH,4H,5H,6H, 6aH-cyclopenta[d] [1,2]oxazol-3-yl]-2-methoxy-benzamido}-6-(trifluoromethyl)-1-benzothiophene-2-carboxamide] was 1140 nM.
On to `COC(=O)C1CN(c2ccc(OC)c(C(=O)Nc3c(C(=O)Nc4ccc(F)c(C(F)(F)F)c4)sc4cc(C(F)(F)F)ccc34)c2)C1` [Example 1, Methyl 1-(3-((2-((4-fluoro-3-(trifluoromethyl)phenyl)carbamoyl)-6-(trifluoromethyl)benzo[b]thiophen-3-yl)carbamoyl)-4-methoxyphenyl)azetidine-3-carboxylate], for which a half-maximal effect (EC50) was put at 631 nM.
The value for `COc1ccc(C2CC2C(=O)N2CC(O)C2)cc1C(=O)Nc1c(C(=O)Nc2ccc(F)c(C(F)(F)F)c2)sc2cc(C(F)(F)F)ccc12` (stereo not shown) [Example 162, N-(4-fluoro-3-(trifluoromethyl)phenyl)-3-(5-(2-(3-hydroxyazetidine-1-carbonyl)cyclopropyl)-2-methoxy-benzamido)-6-(trifluoromethyl) benzo[b] thiophene-2-carboxamide] was 292 nM.
With `COc1ccc(C(=O)N2CC[C@@H](O)C2)cc1C(=O)Nc1c(C(=O)Nc2ccc(F)c(C(F)(F)F)c2)sc2cc(C(F)(F)F)ccc12` [Example 175, (R)-N-(4-fluoro-3-(trifluoromethyl)phenyl)-3-(5-(3-hydroxy-pyrrolidine-1-carbonyl)-2-methoxy-benzamido)-6-(trifluoromethyl) benzo[b] thiophene-2-carboxamide] the figure was 374 nM.
Compound `COc1ccc(C2CCCN(C(C)C)CC2)cc1C(=O)Nc1c(C(=O)Nc2ccc(F)c(C(F)(F)F)c2)sc2cc(C(F)(F)F)ccc12` (stereo not shown) [Example 213, N-(4-fluoro-3-(trifluoromethyl)phenyl)-3-(5-(1-isopropylazepan-4-yl)-2-methoxy-benzamido)-6-(trifluoromethyl) benzo[b] thiophene-2-carboxamide] returned an EC50 of 3360 nM.
In turn, `COc1ccc(C2=NOC3(CCN(C(=O)C(C)(C)O)C3)C2)cc1C(=O)Nc1c(C(=O)Nc2ccc(F)c(C(F)(F)F)c2)sc2cc(C(F)(F)F)ccc12` (stereo not shown) [Example 279, N-[4-fluoro-3-(trifluoromethyl)phenyl]-3-{5-[7-(2-hydroxy-2-methylpropanoyl)-1-oxa-2,7-diazaspiro[4.4]non-2-en-3-yl]-2-methoxy-benzamido}-6-(trifluoromethyl)-1-benzothiophene-2-carboxamide] yielded a half-maximal effective concentration (EC50) of 582 nM.
With `COc1ccc(C2CCCN(CCS(C)(=O)=O)CC2)cc1C(=O)Nc1c(C(=O)Nc2ccc(F)c(C(F)(F)F)c2)sc2cc(C(F)(F)F)ccc12` (stereo not shown) [Example 74, N-(4-fluoro-3-(trifluoromethyl)phenyl)-3-(2-methoxy-5-(1-(2-(methylsulfonyl)ethyl)azepan-4-yl)benzamido)-6-(trifluoromethyl) benzo[b] thiophene-2-carboxamide] the figure was 3370 nM.
The value for `COc1ccc(-c2cc(C(=O)O)ccc2F)cc1C(=O)Nc1c(C(=O)Nc2ccc(F)c(C(F)(F)F)c2)sc2cc(C(F)(F)F)ccc12` [Example 128, 6-fluoro-3′-((2-((4-fluoro-3-(trifluoromethyl)phenyl)carbamoyl)-6-(trifluoromethyl)benzo[b]thiophen-3-yl)carbamoyl)-4′-methoxy-[1,1′-biphenyl]-3-carboxylic acid] was 237 nM; that for `COc1ccc(C(=O)NCC2(S(C)(=O)=O)CC2)cc1C(=O)Nc1c(C(=O)Nc2ccc(F)c(C(F)(F)F)c2)sc2cc(Cl)ncc12` [Example 196, N3-(6-chloro-2-((4-fluoro-3-(trifluoromethyl)phenyl)carbamoyl)thieno[3,2-c]pyridin-3-yl)-4-methoxy-N1-((1-(methylsulfonyl)cyclopropyl)methyl) isophthalamide] was 70 nM.
For `CNC(=O)CN1CCCC(c2ccc(OC)c(C(=O)Nc3c(C(=O)Nc4ccc(F)c(C(F)(F)F)c4)sc4cc(C(F)(F)F)ccc34)c2)C1` (stereo not shown) [Example 99, N-(4-fluoro-3-(trifluoromethyl)phenyl)-3-(2-methoxy-5-(1-(2-(methylamino)-2-oxoethyl)piperidin-3-yl)benzamido)-6-(trifluoromethyl) benzo[b] thiophene-2-carboxamide], the EC50 was determined as 1370 nM.
The value for `COc1cc(F)c(C(=O)N2CC[C@@H](O)C2)cc1C(=O)Nc1c(C(=O)Nc2ccc(F)c(C(F)(F)F)c2)sc2cc(C(F)(F)F)ccc12` [Example 183, (R)-N-(4-fluoro-3-(trifluoromethyl)phenyl)-3-(4-fluoro-5-(3-hydroxy-pyrrolidine-1-carbonyl)-2-methoxy-benzamido)-6-(trifluoromethyl) benzo[b] thiophene-2-carboxamide] was 823 nM.
The compound `COc1ccc(-c2noc(C(C)(C)CO)n2)cc1C(=O)Nc1c(C(=O)Nc2ccc(F)c(C(F)(F)F)c2)sc2cc(C(F)(F)F)ccc12` [Example 274, N-(4-fluoro-3-(trifluoromethyl)phenyl)-3-(5-(5-(1-hydroxy-2-methylpropan-2-yl)-1,2,4-oxadiazol-3-yl)-2-methoxy-benzamido)-6-(trifluoromethyl) benzo[b] thiophene-2-carboxamide] registered a 50% effective concentration (EC50) of 278 nM.
`COc1ccc(C2=NOC3CN(C(=O)CO)CC23)cc1C(=O)Nc1c(C(=O)Nc2ccc(F)c(C(F)(F)F)c2)sc2cc(C(F)(F)F)ccc12` (single isomer, unassigned) [Example 243, N-(4-fluoro-3-(trifluoromethyl)phenyl)-3-(5-(5-(2-hydroxyacetyl)-3a,5,6,6a-tetrahydro-4H-pyrrolo[3,4-d]isoxazol-3-yl)-2-methoxy-benzamido)-6-(trifluoromethyl) benzo[b] thiophene-2-carboxamide] had an EC50 of 1050 nM.
With `COc1ncc(C(=O)N2CC(O)C2)cc1C(=O)Nc1c(C(=O)Nc2ccc(F)c(C(F)(F)F)c2)sc2cc(C(F)(F)F)ccc12` [Example 173, N-(2-((4-fluoro-3-(trifluoromethyl)phenyl)carbamoyl)-6-(trifluoromethyl)benzo[b]thiophen-3-yl)-5-(3-hydroxyazetidine-1-carbonyl)-2-methoxy-nicotinamide] the figure was 179 nM; with `COc1ccc(C2CCCN(C(=O)CN(C)C)C2)cc1C(=O)Nc1c(C(=O)Nc2ccc(F)c(C(F)(F)F)c2)sc2cc(C(F)(F)F)ccc12` (single isomer, unassigned) [Example 87, 3-(5-(1-(dimethylglycyl)piperidin-3-yl)-2-methoxy-benzamido)-N-(4-fluoro-3-(trifluoromethyl)phenyl)-6-(trifluoromethyl) benzo[b] thiophene-2-carboxamide], 1160 nM.
